Measurements: publication PMC7956382 (Molecules, 2021)

Test system: muscle nAChR-expressing cells
Type: cell-based, mouse

With α-bungarotoxin [α-Bgt] the “Inhibition of calcium transients” value was “No transients were recorded”.
